What was measured:
[1] = molecular target: T1, Atlantic cod estrogen receptor alpha (gmEra) LBD (Gadus morhua, UniProt U5ILH7); assay: Luciferase reporter gene assay, gmEra agonism (estrogenic activity) in transfected COS-7 cells; settings: for gmEra REP50 (relative potency EC50, EC50-bisphenol A/EC50-bisphenol X): relative to BPA
T1 sequence (U5ILH7 170-455): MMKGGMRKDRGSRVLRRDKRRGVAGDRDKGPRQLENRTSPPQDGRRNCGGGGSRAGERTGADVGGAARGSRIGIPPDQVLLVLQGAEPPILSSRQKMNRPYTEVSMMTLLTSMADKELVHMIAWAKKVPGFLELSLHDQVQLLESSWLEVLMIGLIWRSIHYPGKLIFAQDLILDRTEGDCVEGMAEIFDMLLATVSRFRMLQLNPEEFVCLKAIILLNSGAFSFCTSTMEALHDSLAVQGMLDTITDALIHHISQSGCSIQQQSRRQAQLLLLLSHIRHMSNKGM
Experimental: (§1) Ligand activation of gmEra and gmAra was studied with a luciferase reporter gene assay in COS-7 cells transiently transfected with the pCMX-GAL4(DBD)-gmEra(LBD) or pCMX-GAL4(DBD)-gmAra(LBD) plasmid by using the TransIT-LT1 reagent (TransIT-LT1 Transfection Reagent, Mirus). Cells were seeded into 96-well plates (5000 cells/well) and incubated for 24 h before cotransfection with the plasmid mixture (100 ng/well). The plasmid mixture contained GAL4-UAS luciferase reporter plasmid (tk-(MH100)x4 luc), the pCMX-GAL4(DBD)-gmEra(LBD) or pCMX-GAL4(DBD)-gmAra(LBD) receptor plasmids (2:1 reporter:receptor plasmid mass ratio), and a plasmid constitutively producing the β-galactosidase enzyme used for normalization of transfection efficiency (pCMV- β-Gal). […] The maximum DMSO/methanol concentrations in the exposure wells were 0.5% (v/v) in DMEM medium without phenol red (Sigma-Aldrich). After exposure, cells were lysed, and luciferase and beta-galactosidase activities were measured as luminescence and absorbance (420 nm) after the addition of luciferin and ONPG substrates, respectively, using an Enspire Multimode plate reader (PerkinElmer, Waltham, Massachusetts, USA).
Luciferase reporter gene assays were established with COS-7 cells transiently producing the LBD of gmEra (Figure S1) for evaluating the estrogenic potential of 12 bisphenols.
COS-7 cells transiently transfected with gmEra-LBD were exposed to EE2 (open circles), BPA (black circles), and 11 different BPA analogs (red squares and as indicated) at increasing concentrations. Responses are presented as mean fold activation in luciferase activity in comparison to solvent-exposed cells ± SEM from three independent experiments with three technical replicates (n = 9). The dose–response curves were created using nonlinear regression and the four parameter logistic fit in Graphpad Prism v.9. For comparison, the dose–response curve of BPA (black line) is indicated together with each individual BP tested (red line). *p < 0.05 versus solvent control by one-way ANOVA and Dunnett’s multiple comparison post hoc test.

[2] = molecular target: T1, Atlantic cod estrogen receptor alpha (gmEra) LBD; assay: Luciferase reporter gene assay, gmEra antagonism (antiestrogenic activity), coexposure with 3 nM EE2; type: cell-based; settings: for antiestrogenic effect on gmEra, result in words: coexposure with EE2 (3 nM, EC20)
Experimental: as §1
To investigate potential antiestrogenic effects, COS-7 cells transiently expressing gmEra LBD were exposed to the 12 bisphenols in binary mixtures with a fixed concentration of EE2 (3 nM, corresponding to EC20) (Figure 2 and Table 1).
(§2) The dose–response curves were created using nonlinear regression and the four-parameter logistic fit in Graphpad Prism v.9. *p < 0.05 versus solvent control by ANOVA and Dunnett’s multiple comparison post hoc test.

[3] = system: Er-mediated synthesis of Vtg in Atlantic cod PCLS; assay: Vitellogenin ELISA in media of exposed precision-cut liver slices (PCLS); type: cell-based, Atlantic cod (Gadus morhua); settings: 96 h; for Vtg synthesis in PCLS, result in words: 1, 10, 100 μM bisphenols or 0.1, 1, 10 nM EE2, Vtg in media by ELISA; for concentration at which maximum Vtg levels were observed: 1, 10, 100 μM tested
Experimental: PCLS culturing and exposure assays were performed essentially as described previously,[42],[56] with the modifications described below. Juvenile Atlantic cod were killed by a blow to the head, and the liver was dissected out and placed in a Petri dish containing ice-cold PCLS buffer (122 mM NaCl, 4.8 mM KCl, 1.2 mM MgSO4, 11 mM Na2HPO4, 3.7 mM NaHCO3, […]). The liver was then cut into small tissue blocks (approximately 3 cm long, 2 cm wide, and 1–3 cm high) and kept in ice-cold complete culture medium (L-15 medium supplemented with 10% FBS and 1× antibiotic-antimycotic solution). For slicing, the tissue block was fixed on the specimen plate of a Leica vibrating blade microtome VT1200 (Leica, Wetzlar, Germany) using Loctite Super Glue (Clas Ohlson, Bergen, Norway), and 250 μm thick tissue slices were cut (under ice-cold PCLS buffer) and kept in a Petri dish with ice-cold complete culture medium. Using a sterile razor blade, the tissue slices (2 × 3 cm) were then divided into smaller pieces (approximately 4 × 4 mm) and distributed into a 12-well cell culture plate (Sarstedt, Nümbrecht, Germany), each well containing 6 slices and 2 mL of complete culture medium. The PCLS were preincubated at 10 °C for 2 h before exposure. After preincubation, 1 mL of the medium was removed from each well and replaced by 1 mL of fresh complete culture medium containing 2x the final desired concentration and incubated at 10 °C for 96 h with shaking at 50 rpm. […] At the end of the exposure, slices were collected with tweezers and rinsed briefly in cold PBS. Excess PBS was removed by carefully touching a dry surface of the culture plate with the slice 4 times before measuring the weight in a preweighed cryotube. The slices were then snap-frozen in liquid N2 and stored at −80 °C. The media was also sampled and stored at −80 °C for viability (LDH) assay and vitellogenin ELISA.
Vitellogenin (Vtg) in media collected from exposed PCLS was quantified using the Atlantic Cod Vitellogenin ELISA kit (Biosense Laboratories AS, Bergen, Norway) according to manufacturer’s instructions. Vtg was quantified in 100 μL of undiluted media and normalized to the weight of the liver tissue. Statistical analysis of ELISA data was performed with GraphPad Prism Software version 9 (GraphPad Prism, La Jolla, CA, USA) by using one-way ANOVA followed by Dunnett’s test (for normally distributed data) or Friedman test followed by Dunn’s test (for non-normally distributed data), as described previously for PCLS experiments (Yadetie et al.[42]).
Figure 5 Relative vitellogenin production in Atlantic cod precision-cut liver slices (PCLS) exposed to bisphenols and EE2. PCLS were exposed to 1, 10, and 100 μM bisphenols or 0.1, 1, and 10 nM EE2, for 96 h. EE2 was included as positive control for activation of the gmEra signaling pathway. Levels of induced Vtg in the PCLS media were measured using ELISA (Cod Vitellogenin ELISA kit, Biosense Laboratories AS). The data represents mean ± SEM of fold change (compared to solvent control) of Vtg levels from 4 to 10 fish. n = 8–10 for all bisphenols except for BADGE (n = 4). Asterisks denote significant changes (p < 0.05) compared to solvent control.

[4] = molecular target: T2, Atlantic cod androgen receptor alpha (gmAra) LBD (Gadus morhua, UniProt D5FIC7); assay: Luciferase reporter gene assay, gmAra antagonism (antiandrogenic activity), coexposure with 5 nM testosterone; type: cell-based; settings: for effect on testosterone-mediated gmAra activity, result in words: BPs 0.003–50 μM with 5 nM testosterone; for IC50: gmAra IC50, in the presence of 5 nM testosterone (EC20)
T2 sequence (D5FIC7 409-718): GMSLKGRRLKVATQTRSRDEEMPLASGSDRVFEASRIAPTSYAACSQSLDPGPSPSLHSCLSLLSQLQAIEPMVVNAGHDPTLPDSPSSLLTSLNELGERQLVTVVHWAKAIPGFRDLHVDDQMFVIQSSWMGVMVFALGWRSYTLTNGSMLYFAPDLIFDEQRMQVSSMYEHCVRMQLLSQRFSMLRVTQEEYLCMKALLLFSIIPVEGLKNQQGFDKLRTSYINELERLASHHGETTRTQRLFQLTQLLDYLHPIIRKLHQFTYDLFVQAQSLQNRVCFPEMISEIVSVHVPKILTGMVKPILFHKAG
Experimental: as §1, §2

[5] = system: COS-7 cells; assay: Cytotoxicity toward COS-7 cells (resazurin and CFDA-AM assays); settings: 24 h; for concentration that affected COS-7 cell viability: binary combination with 0.003 μM EE2
Excerpt: The cytotoxicity of the test compounds toward COS-7 cells was monitored by measuring the metabolic activity and membrane integrity through the conversion of resazurin and 5-carboxyfluorescein diacetate acetoxymethyl ester (CFDA-AM), respectively, as described previously by Pérez-Albaladejo et al.[54] […]
used as a negative control.
Figure S2. Assessing metabolic activity (resazurin) and cell membrane integrity (CFDA-AM) in COS-7 cells after BP exposures. COS-7 cells were exposed to three concentrations of each BP, as well as three concentrations […]
exposed at 37 °C and 5 % CO2 for 24 hours. Cytotoxicity is indicated by a reduction in the fluorescent signal (denoted as % Cell survival) relative to the solvent control (DMSO, dotted line) adjusted to 100 %. A reduction in cell viability exceeding 20 % is generally regarded as cytotoxic (indicated with a red dotted line) (ISO, I. 2009.
10993–5: 2009 Biological evaluation of medical devices—part 5: tests for in vitro cytotoxicity. International Organization for Standardization, Geneva.).
(1 picture or pasted object on this page, not shown here)

[6] = molecular target: T2, Atlantic cod androgen receptor alpha (gmAra) LBD; assay: Luciferase reporter gene assay, gmAra agonism (androgenic activity) in transfected COS-7 cells
Experimental: as §1
Figure 3 Androgenic activity of bisphenols. COS-7 cells were transiently transfected with gmAra LBD and exposed individually to 12 bisphenol analogs at increasing concentrations. […] The dose–response curves were created using nonlinear regression and the four-parameter logistic fit in Graphpad Prism v.9. For comparison, the dose–response curve of BPA (black line) is indicated together with each individual BP tested (red line). *p < 0.05 versus solvent control by one-way ANOVA and Dunnett’s multiple comparison post hoc test.

[7] = gmEra EC50, four-parameter logistic fit, 24 h exposure
[8] = antiandrogenic reporter assay conditions (with testosterone), highest concentration used

Row | Structure (SMILES) | EC50 [1, 7] | antiestrogenic effect on gmEra, result in words [2] | Vtg synthesis in PCLS, result in words [3] | effect on testosterone-mediated gmAra activity, result in words [4] | IC50 [4] | also measured
1 | Oc1ccc(Cc2ccc(O)cc2)cc1 [BPF] | 3800 nM | no antiestrogenic effects | induced the highest Vtg-levels ex vivo | – | – | –
2 | CC(C)c1cc(C(C)(C)c2ccc(O)c(C(C)C)c2)ccc1O [BPG] | – | – | able to induce Vtg synthesis in PCLS | significantly decrease the testosterone-mediated Ara-activity | 200 nM | cytotoxic concentration in COS-7 cells [5, 8]: 50 µM; concentration that affected COS-7 cell viability ([5]; highest concentration used): 50 µM
3 | CC1CC(C)(C)CC(c2ccc(O)cc2)(c2ccc(O)cc2)C1 (stereo not drawn) [BPTMC] | – | – | – | significantly decrease the testosterone-mediated Ara-activity | 1750 nM | cytotoxic concentration in COS-7 cells [5, 8]: 50 µM; concentration that affected COS-7 cell viability ([5]; highest concentration used): 50 µM; concentration at which maximum Vtg levels were observed [3]: 10 µM
4 | C[C@]12CC[C@H]3[C@@H](CCC4=CC(=O)CC[C@@]43C)[C@@H]1CC[C@@H]2O [T, testosterone, reference compound] | – | – | – | – | – | gmAra Emax ([6]; fold activation in luciferase activity vs solvent control, 24 h exposure, a = plateau not reached): 42.1 fold activation
5 | Oc1ccc(C(=C(Cl)Cl)c2ccc(O)cc2)cc1 [BPC2] | 200 nM | – | – | – | – | IC50 [2]: 60 nM
6 | CCC(C)(c1ccc(O)cc1)c1ccc(O)cc1 [BPB] | 1600 nM | no antiestrogenic effects | – | – | – | –
7 | C#C[C@]1(O)CC[C@H]2[C@@H]3CCc4cc(O)ccc4[C@H]3CC[C@@]21C [EE2, 17α-Ethynylestradiol, reference compound] | 7 nM | – | increased Vtg-levels in the media in a dose-dependent manner | – | – | maximal fold induction ([1]; COS-7, monkey, 24 h, read-out: gmEra Emax): 80; potency toward gmEra relative to BPA (times more potent) ([1]; EE2 compared with BPA): ~10^3; EC50 ([1]; gmEra EC50, value given in text): 6.8 nM; gmEra REP50 (relative potency EC50, EC50-bisphenol A/EC50-bisphenol X) [1]: 271
8 | O=S(=O)(c1ccc(O)cc1)c1ccc(O)cc1 [BPS] | 83300 nM | no antiestrogenic effects | – | – | – | –
9 | CC(C)C(=O)Nc1ccc([N+](=O)[O-])c(C(F)(F)F)c1 [flutamide, reference compound] | – | – | – | – | ~710 nM | –
10 | Oc1ccc(C(c2ccc(O)cc2)(C(F)(F)F)C(F)(F)F)cc1 [BPAF] | 230 nM | no antiestrogenic effects | – | – | – | cytotoxic concentration in COS-7 cells ([5]; African green monkey): 50 µM; concentration at which maximum Vtg levels were observed [3]: 10 µM
11 | Oc1ccc(C2(c3ccc(O)cc3)CCCCC2)cc1 [BPZ] | – | – | only moderate and not statistically significant | significantly decrease the testosterone-mediated Ara-activity | 880 nM | effect on testosterone-mediated gmAra activity at lower concentrations, result in words ([4]; lower concentrations used (3–80 nM) with 5 nM testosterone): significant increases in gmAr activity; cytotoxic concentration in COS-7 cells [5, 8]: 50 µM; concentration that affected COS-7 cell viability ([5]; highest concentration used): 50 µM; concentration at which maximum Vtg levels were observed [3]: 10 µM
12 | CC(c1ccc(O)cc1)c1ccc(O)cc1 [BPE] | 11700 nM | no antiestrogenic effects | induced the highest Vtg-levels ex vivo | significantly decrease the testosterone-mediated Ara-activity | 460 nM | gmEra REP50 (relative potency EC50, EC50-bisphenol A/EC50-bisphenol X) [1]: 0.2; maximal fold induction ([6]; COS-7, monkey, 24 h, read-out: gmAra Emax): 1.2
